# Data as given in BindingDB's records for doi:10.1016/j.bmc.2010.04.075 (Chungnam National University, 2010).
# Assay: Inhibition of IL5-mediated proliferation of mouse Y16 cells by WST1 assay
row,SMILES,IC50 [µM]
1,"COc1ccc(-c2coc3cccc(OCC4CCCCC4)c3c2=O)cc1OC [5-(Cyclohexylmethoxy)-3-(3,4-dimethoxyphenyl)-4Hchromen-4-one]",> 30
2,O=C1/C(=C/c2ccc(Cl)cc2)Oc2cccc(OCC3CCCCC3)c21 [(Z)-2-(4-Chlorobenzylidene)-4-(cyclohexylmethoxy)benzofuran-3(2H)-one],> 30
3,COc1cc(-c2coc3cccc(OCC4CCCCC4)c3c2=O)ccc1O [5-(Cyclohexylmethoxy)-3-(4-hydroxy-3-methoxyphenyl)-4H-chromen-4-one],> 30
4,COc1ccc(-c2coc3cccc(OCC4CCCCC4)c3c2=O)cc1 [5-(Cyclohexylmethoxy)-3-(4-methoxyphenyl)-4H-chromen-4-one],> 30
5,O=C1/C(=C/c2ccc([N+](=O)[O-])cc2)Oc2cccc(OCC3CCCCC3)c21 [(Z)-4-(Cyclohexylmethoxy)-2-(4-nitrobenzylidene)benzofuran-3(2H)-one],> 30
6,O=Cc1ccc(/C=C2\Oc3cccc(OCC4CCCCC4)c3C2=O)cc1 [(Z)-4-{[4-(Cyclohexylmethoxy)-3-oxobenzofuran-2(3H)-ylidene]methyl}benzaldehyde],> 30

# Continued, values first:
row,IC50 [µM],SMILES
1,> 30,CCc1ccc(-c2coc3cccc(OCC4CCCCC4)c3c2=O)cc1 [5-(Cyclohexylmethoxy)-3-(4-ethylphenyl)-4H-chromen-4-one]
2,> 30,O=C1/C(=C/c2ccccc2)Oc2cccc(OCC3CCCCC3)c21 [(Z)-2-(Benzylidene)-4-(cyclohexylmethoxy)benzofuran-3(2H)-one]
3,> 30,COC(=O)c1ccc(/C=C2\Oc3cccc(OCC4CCCCC4)c3C2=O)cc1 [Methyl(Z)-4-[4-(cyclohexylmethoxy)-3-oxobenzofuran-2(3H)-ylidene]methylbenzoate]
4,> 30,CCc1ccc(/C=C2\Oc3cccc(OCC4CCCCC4)c3C2=O)cc1 [(Z)-4-(cyclohexylmethoxy)-2-(4-ethylbenzylidene)benzofuran-3(2H)-one]
5,> 30,COCOc1ccc(-c2coc3cccc(OCC4CCCCC4)c3c2=O)cc1 [5-(Cyclohexylmethoxy)-3-[4-(methoxymethoxy)phenyl]-4H-chromen-4-one]
6,17.4,COc1cc(-c2coc3cccc(OCC4CCCCC4)c3c2=O)ccc1OCc1ccccc1 [3-(4-(Benzyloxy)-3-methoxyphenyl)-5-(cyclohexylmethoxy)-4H-chromen-4-one]
